We go through three molecules from patent US20240180881A1, “METHODS FOR DECREASING RESISTANCE TO CHEMOTHERAPY” (National Institute of Immunology, priority 2022, published 2024).

Test [1] concerns the target T1, RAD54 chromatin remodeling activity (Homo sapiens, UniProt Q92698).
T1 construct: GST RAD54 (1-747) (WT), GST BLM (1-1417) (WT), His RAD54 (1-747) (WT); made in house; host or cells: E. coli BL-21 DE3
T1 sequence (Q92698 1-747): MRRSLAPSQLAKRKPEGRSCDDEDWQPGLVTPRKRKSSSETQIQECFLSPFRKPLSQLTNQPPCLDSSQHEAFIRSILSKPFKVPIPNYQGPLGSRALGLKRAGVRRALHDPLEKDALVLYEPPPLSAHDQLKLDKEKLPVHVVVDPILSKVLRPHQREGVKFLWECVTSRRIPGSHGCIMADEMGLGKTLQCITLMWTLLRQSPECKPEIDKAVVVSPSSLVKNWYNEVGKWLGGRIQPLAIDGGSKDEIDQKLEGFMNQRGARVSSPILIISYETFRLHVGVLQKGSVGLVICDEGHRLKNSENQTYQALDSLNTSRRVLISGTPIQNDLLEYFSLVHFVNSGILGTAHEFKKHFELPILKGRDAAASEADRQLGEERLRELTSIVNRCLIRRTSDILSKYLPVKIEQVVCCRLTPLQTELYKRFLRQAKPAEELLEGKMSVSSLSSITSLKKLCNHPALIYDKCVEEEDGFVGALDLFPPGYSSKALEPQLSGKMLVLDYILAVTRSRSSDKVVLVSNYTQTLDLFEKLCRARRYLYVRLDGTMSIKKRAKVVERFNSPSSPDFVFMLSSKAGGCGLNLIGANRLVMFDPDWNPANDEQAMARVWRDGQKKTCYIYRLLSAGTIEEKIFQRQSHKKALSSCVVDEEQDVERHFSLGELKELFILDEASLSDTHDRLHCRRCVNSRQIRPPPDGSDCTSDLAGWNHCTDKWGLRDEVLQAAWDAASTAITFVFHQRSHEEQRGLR
Put plainly: REA assay on chromatinized MRP2 array. Type of test: biochemical. The conditions noted are these: 10 μM compound.
Excerpt: (§1) The data was from three independent experiments.
as §1
The data is from three independent experiments.

Test [2] has as its target T2, His-RAD54 WT (Homo sapiens, UniProt Q92698).
T2 construct: made in house; host or cells: E. coli BL-21 DE3
T2 sequence (Q92698 1-747): T1 sequence (Q92698 1-747)
Briefly: Tryptophan fluorescence assay. Type of test: binding. The settings on record: compound, from 10 nM. As to the method: To determine how BLM peptide affects ATP binding and hydrolysis, tryptophan fluorescence assays were carried out using full-length recombinant RAD54 in presence of either BLM_peptide or SCM_peptide (FIG. 2H). Tryptophan fluorescence assays were carried out with RAD54 WT alone or RAD54 WT in presence of the indicated concentrations of either BLM_peptide (upper panel) or SCM_peptide (lower panel). The experiment was repeated three times and one representative experiment has been shown.
RAD54 fluorescence was measured in a fluorometer.
Tryptophan fluorescence measurements were performed on a Fluoromax Spectrofluorimeter (Horiba-Jobin Yvon Fluoromax 4). Recombinant His-RAD54 (500 nM) was excited at 280 nm and the emission intensity monitored at regular intervals from 295 nm to at least 450 nm.

Test [3] concerns homologous recombination in HCT116 IC60 CPTR cells. Put plainly: HR assay. Type of test: cell-based. The settings on record: HR substrate transfected for 72 hours. As to the method: Concentrations of CPT used: 0.140 nM, 20 nM, 50 nM, 1000 nM. Concentration of 1-OHP: 0.14 μM, 2 μM, 4 μM, 6 μM, 8 μM. Concentrations of CDDP used: 0.140 μM, 2 μM, 5 μM, 10 μM. The percentage of viable cells were determined by MTT assays (FIG. 12A-12C). The data in FIG. 12A and FIG. 12C is from three independent experiments and the data in FIG. 12B is from nine independent experiments. […] The levels of MRP2, MRP3, MRP5, MXR were quantitated from three independent experiments. […] Specifically, HCT116 IC60 CPTR cells were transfected with the HR substrate for 72 hours and the levels of HR was determined (FIG. 6A). The data is from three independent experiments. […] The number of soft agar colonies in each condition were counted. The data is from three independent experiments.
For HR assay, 10 μg of the HR plasmid (Seluanov et al., 2010) was digested with I-SceI, purified and eluted into 20 μl of 10 mM TrisHCl pH 8.0. 5 μg of the linearized reporter cassette along with 100 ng of tdTomato-N1 plasmid were transfected in an exponentially growing 10 cm dish of cells using FuGENE® HD Transfection Reagent. After 3 days of transfection, the cells were harvested. The GFP positive and TdRed positive cells were analysed by FACS. SCE assays were carried out as described earlier (Chabosseau et al., 2011).

The test system of test [4] is HCT116 IC60 1-OHPR tumors. Put plainly: Xenograft model, oxaliplatin resistant cells. Type of test: in vivo, NSG mice. The conditions noted are these: 1-OHP 2 mg/kg + compound 5 mg/kg, compared to 1-OHP alone. How it is done:
Tumors from different groups were excised at the end of the experiments. […] For these experiments, RNA and protein was isolated from tumors obtained at the end point of the xenograft experiment. RNA and the protein levels of MRP2 were determined by RT-qPCR and western blotting with anti-MRP2 antibody. For each group three tumor samples were analyzed (FIG. 6F, 6G). […] The levels of the indicated MDR genes were quantitated from three tumor samples from each group. Mean±S.D. (FIG. 13A). […] The experiment was repeated three times and one representative experiment has been shown (FIG. 13B).
In all cases tumor volume were measured at the indicated days post-injection using the following formula: Tumor volume=½(length×width2).

Consider `CN1CCN(C2=Nc3ccccc3Oc3ccc(Cl)cc32)CC1.O=C(O)CCC(=O)O` [C17, Loxapine succinate], for which the “BLM dependent enhancement of RAD54 chromatin remodeling, fraction uncut” value (“BLM dependent enhancement … fraction uncut” for short) in test [1] is given as “decreased the efficiency of BLM dependent enhancement of RAD54 chromatin remodelling activity”. The “tryptophan fluorescence of RAD54” value in test [2] was “quenched the tryptophan florescence of RAD54 even at 10 nM concentration”. Moreover, the “levels of HR” value in test [3] was “decreased the levels of the HR”. The tumor growth entry in test [4] is listed as “inhibited the tumor growth”.

Turning to `CC(=O)Nc1nnc(S(N)(=O)=O)s1` [C3, Acetazolamide], in test [1], the “BLM dependent enhancement … fraction uncut” value is on record as “decreased the efficiency of BLM dependent enhancement of RAD54 chromatin remodelling activity”. In addition, the “tryptophan fluorescence of RAD54” value in test [2] was “quenched the tryptophan florescence of RAD54 even at 10 nM concentration”. In addition, the “levels of HR” value in test [3] is reported as “decreased the levels of the HR”. Further, in test [4], the tumor growth result is reported as “inhibited the tumor growth”.

In the case of `OCCN(CCO)c1nc(N2CCCCC2)c2nc(N(CCO)CCO)nc(N3CCCCC3)c2n1` [C7, Dipyridamole], the “BLM dependent enhancement … fraction uncut” value in test [1] is “decreased the efficiency of BLM dependent enhancement of RAD54 chromatin remodelling activity”. Further, in test [2], the “tryptophan fluorescence of RAD54” value is “quenched the tryptophan florescence of RAD54 even at 10 nM concentration”. For the same molecule, the “levels of HR” value in test [3] is “decreased the levels of the HR”. Moreover, in test [4], the tumor growth entry was “inhibited the tumor growth”.
